Measured values taken from patent EP3991729A1, “USE OF AMLEXANOX IN PREPARING ANTI-HEPATITIS VIRUS DRUG” (Marine Biomedical Research Institute Of Qingdao Co., Ltd., priority 2019, dated 2020).

Assays:
[1] = tested on: hepatitis B virus; assay: HBsAg in culture supernatant of HepAD38 cells, ELISA; assay type: cell-based; details: 10µM and 5µM, HepAD38, 24h, 48h, 96h, 144h, Figure 13
Experimental: Two groups of controls were also set up, one with only solvents (DMF) and one with antibiotics (tetracycline). Three replicate wells were set up for all experiments. 500µL of culture supernatant was taken at 24h, 48h, 96h, and 144h after adding the test article for ELISA to detect HBsAg concentration (Figure 13).

[2] = tested on: 3TC/ETV-resistant HBV; assay: Mouse venous hypertension model, serum HBsAg by ELISA (Example 13, Figure 17); assay type: in vivo, male C57 mice; details: 150 mg/day (converted adult dose, 22.8 mg/kg/day in mice), oral gavage, five days
From the text: The specific method was based on the instructions of the ELISA kit.

[3] = tested on: alanine aminotransferase (ALT); assay: Mouse venous hypertension model (genotype A), serum alanine aminotransferase (ALT) activity, colorimetric kit; details: 25-200 mg/day (converted adult dose), once a day oral gavage, Figure 16
Experimental: (§3) Six-week-old male C57 mice were rapidly injected with 10µg/mouse of viral genomic DNA (genotype A) by tail vein injection in a short period. Viral infection was established using a venous hypertension model and randomly divided into groups. […] At the same time, a blank control was set up, and oral administration in uninfected mice was equivalent to the model group.
On days 1, 3, and 7 of administration, an appropriate amount of blood was collected from the tail vein of mice in each group. On day 9, the remaining peripheral blood was collected after the mice were sacrificed. All blood samples were centrifuged to obtain serum, divided into two portions. One was used to detect the concentration of HBsAg by ELISA, and the other was used to detect the enzyme activity of alanine aminotransferase (ALT) by alanine aminotransferase kit (colorimetric method) (Nanjing Jiancheng Bioengineering Institute).

[4] = tested on: hepatitis B virus; assay: Mouse venous hypertension model (genotype B), core antigen (HBeAg) in peripheral blood by ELISA; assay type: in vivo, Wild-type mice (C57/B6); details: 50 mg/kg/day oral gavage, 9th day after infection, Figure 4
Experimental: . On the 9th day after infection, about 100µl/mouse of blood was harvested from the tail to separate serum. The concentration of hepatitis B virus core antigen (HBeAg) in peripheral blood was measured by ELISA. The OD value at 450nm was measured on a microplate reader.

[5] = tested on: Hela cells; assay: Cytotoxicity test, MTT assay; assay type: cell-based; details: Homo sapiens, 72 h, read-out: Inhibition (%) Hel a
Experimental: (§1) […]. Various cells in the logarithmic growth phase were seeded in 96-well plates at 6,000 cells/well and cultured for 24h. […]. The dosage of DMSO in the solvent control group was based on the maximum dose of 0.1% used in the test group, with four duplicate wells for each concentration. Cells were treated with the drug for 72h and then added with 20µL 5 mg/mL MTT, cultured at 37°C for 4h, after added 100 µ L triple solution (10% SDS, 5% isobutanol, 12 mM hydrochloric acid), 96-well cell culture plate was placed in an incubator containing 5% CO2 at 37 ± 1°C overnight. OD value at 570nm was measured on a microplate reader.
(§2) The inhibition rate of tumor cell growth was calculated according to the following formula: Inhibition rate(%) = [(OD570controlwell−OD570dosewell)/OD570controlwell] × 100. [formula]

[6] = tested on: THP-1 cells; assay: Cytotoxicity test, MTT assay; assay type: cell-based; details: Homo sapiens, THP-1, 72 h, read-out: Inhibition (%) THP -1
Experimental: as §1, §2

[7] = tested on: A549 cells; assay: Cytotoxicity test, MTT assay; assay type: cell-based; details: Homo sapiens, A549, 72 h, read-out: Inhibition (%) A549
Experimental: as §1, §2

[8] = tested on: HCT-116 cells; assay: Cytotoxicity test, MTT assay; assay type: cell-based
Experimental: as §1, §2

[9] = tested on: HepG2 cells; assay: Cytotoxicity test, MTT assay; assay type: cell-based; details: Homo sapiens, HepG2, 72 h, read-out: Inhibition (%) Hep G2
Experimental: as §1, §2

[10] = tested on: Huh7 cells; assay: Cytotoxicity test, MTT assay; assay type: cell-based
Experimental: as §1, §2

[11] = tested on: MCF7 cells; assay: Cytotoxicity test, MTT assay; assay type: cell-based
Experimental: as §1, §2

[12] = tested on: 293 cells; assay: Cytotoxicity test, MTT assay; assay type: cell-based; details: Homo sapiens, HEK293, 72 h, read-out: Inhibition (%) 293
Experimental: as §1, §2

[13] = tested on: MKN45 cells; assay: Cytotoxicity test, MTT assay; assay type: cell-based
Experimental: as §1, §2

[14] = tested on: hepatitis B virus; assay: HBV genomic DNA replication in HepG2 cells transfected with linear HBV genomic DNA, quantitative PCR of circular HBV DNA; assay type: cell-based, hepatitis B virus (genotype B); details: 10µM, HepG2, 96 hours, Figure 1
Experimental: After 96 hours, cells were divided into two groups, with genomic DNA extracted from one. From the other, free DNA was extracted using HIRT extraction, and linear DNA was removed using DNA exonuclease (NEB). Circular HBV DNA and genomic GAPDH were detected by quantitative PCR. The highest value of circular HBV DNA was defined as 100% (n=5).

[15] = tested on: B and T cells; assay: Immune cells in blood of HBV-infected mice, flow cytometry; details: 4, 8, 16 mg/kg/time, twice a day, oral gavage, day 9, Figure 19
Experimental: as §3
On day 9, mice were sacrificed to collect blood stained with flow antibody after fission red. All cells were treated with anti-FcγRIII/ II (purchased from BD Biosciences) in PBS for 30 min. CD3e-FITC (purchased from BD Biosciences). CD4-PE, CD8a-APC-Vio770, and CD34-FITC (GE). CD19-APC, CD11b-PE-Cyanine7, and CD117-efflor 450 (purchased from eBioscience). After staining, the samples were suspended using 500µL PBS and analyzed by BD Aria III flow cytometer.

[16] = tested on: hepatitis B virus; assay: HBsAg in culture supernatant of HBV DNA-transfected HepG2 cells, ELISA; details: 10µM, HepG2, 96h after transfection, Figure 2
Experimental: Hepatocyte HepG2 cells with good growth status were seeded in 6-well plates at 10^6 cells/well and, after being left overnight, 2µg of linear HBV viral genomic DNA (genotype B) was transfected into each well using lipofectamine 2000 to establish a viral infection cell model. […] An equal volume of DMSO (1/1000, v/v) was added to the control group. Forty-eight hours after transfection, cells from each well were passaged into one 6cm culture plate. After transfection, HBsAg levels in the culture supernatant were quantified by ELISA 96h.
Well-grown hepatocyte HepG2 cells 10^6 cells/well were seeded in 6-well plates, and after overnight, 2µg of linear HBV viral genomic DNA (genotype B) was transfected per well using Lipofectamine 2000. […] An equal volume of DMSO (1/1000, v/v) was added to the control group. Forty-eight hours after transfection, cells from each well were passaged into one 6cm culture plate. HBV surface antigen (HBsAg) in the culture medium was detected by ELISA 96h after transfection.

[17] = Homo sapiens, HCT-116, 72 h, read-out: Inhibition (%) HCT-116
[18] = Homo sapiens, Huh-7, 72 h, read-out: Inhibition (%) Hu h7
[19] = Homo sapiens, MCF7, 72 h, read-out: Inhibition (%) MC F7
[20] = Homo sapiens, MKN-45, 72 h, read-out: Inhibition (%) MKN 45

SMILES: CC(C)c1ccc2oc3nc(N)c(C(=O)O)cc3c(=O)c2c1 [amlexanox, Amlexanox]
- HBsAg concentration in culture supernatant [1]: significantly reduce HBsAg level
- HBsAg level in the blood [2]: significantly decreased
- enzyme activity of alanine aminotransferase (ALT) in serum [3]: can effectively reduce alanine aminotransferase activity
- concentration of hepatitis B virus core antigen (HBeAg) in peripheral blood [4]: reduced hepatitis B virus core antigen levels in a mouse model of venous hypertension, and its effect was comparable to that of lamivudine
- inhibition at 3.125 µM [5]: 3.08%
- inhibition at 6.25 µM [5]: 2.48%
- inhibition at 12.5 µM [5]: 1.7%
- inhibition at 25 µM [5]: 0.79%
- inhibition at 50 µM [5]: 1.89%
- inhibition at 100 µM [5]: 6.15%
- inhibition at 3.125 µM [6]: 0%
- inhibition at 6.25 µM [6]: 0%
- inhibition at 12.5 µM [6]: 0%
- inhibition at 25 µM [6]: 0%
- inhibition at 50 µM [6]: 0%
- inhibition at 100 µM [6]: 7.44%
- inhibition at 3.125 µM [7]: 3.55%
- inhibition at 6.25 µM [7]: 1.31%
- inhibition at 12.5 µM [7]: 0.65%
- inhibition at 25 µM [7]: 0%
- inhibition at 50 µM [7]: 1.08%
- inhibition at 100 µM [7]: 4.54%
- cytotoxicity ([8]; HCT-116, 100 µM, 72h): some cytotoxicity
- inhibition at 3.125 µM [8, 17]: 0%
- inhibition at 6.25 µM [8, 17]: 0%
- inhibition at 12.5 µM [8, 17]: 0.11%
- inhibition at 25 µM [8, 17]: 1.17%
- inhibition at 50 µM [8, 17]: 6.41%
- inhibition at 100 µM [8, 17]: 31.1%
- inhibition at 3.125 µM [9]: 0%
- inhibition at 6.25 µM [9]: 0%
- inhibition at 12.5 µM [9]: 0%
- inhibition at 25 µM [9]: 0%
- inhibition at 50 µM [9]: 0%
- inhibition at 100 µM [9]: 4.8%
- inhibition at 3.125 µM [10, 18]: 0%
- inhibition at 6.25 µM [10, 18]: 7.28%
- inhibition at 12.5 µM [10, 18]: 15%
- inhibition at 25 µM [10, 18]: 18.1%
- inhibition at 50 µM [10, 18]: 26.2%
- inhibition at 100 µM [10, 18]: 35.2%
- cytotoxicity ([10]; Huh7, 100 µM, 72h): some cytotoxicity
- inhibition at 3.125 µM [11, 19]: 1.03%
- inhibition at 6.25 µM [11, 19]: 0.86%
- inhibition at 12.5 µM [11, 19]: 1.22%
- inhibition at 25 µM [11, 19]: 3.8%
- inhibition at 50 µM [11, 19]: 16.4%
- inhibition at 100 µM [11, 19]: 43.5%
- cytotoxicity ([11]; MCF7, 100 µM, 72h): some cytotoxicity
- inhibition at 3.125 µM [12]: 0%
- inhibition at 6.25 µM [12]: 0%
- inhibition at 12.5 µM [12]: 0%
- inhibition at 25 µM [12]: 0%
- inhibition at 50 µM [12]: 0%
- inhibition at 100 µM [12]: 11.3%
- inhibition at 3.125 µM [13, 20]: 0%
- inhibition at 6.25 µM [13, 20]: 3.61%
- inhibition at 12.5 µM [13, 20]: 4.9%
- inhibition at 25 µM [13, 20]: 9.22%
- inhibition at 50 µM [13, 20]: 13.9%
- inhibition at 100 µM [13, 20]: 30.9%
- cytotoxicity ([13]; MKN45, 100 µM, 72h): some cytotoxicity
- Circular HBV DNA (hepatitis B virus genomic DNA replication) [14]: inhibits hepatitis B virus genomic DNA replication in cell models with effects comparable to existing clinical drugs
- effect on immune cells (B and T cells) in blood [15]: had an inhibitory effect on both B and T cells, and the inhibitory effect was dose-dependent
- HBsAg levels in the culture supernatant [16]: reduces HBsAg levels in cell models, and its effect is superior to that of existing clinical drugs
